According to article PMC10518717, “High-Throughput Screening and Proteomic Characterization of Compounds Targeting Myeloid-Derived Suppressor Cells” (Molecular & Cellular Proteomics : MCP, 2023):

Test system: human PMN-MDSC
Assay: Human PMN-MDSC assay (PMN-MDSC/CD8+ T cell/DC coculture, IFNγ HTRF)
Format: cell-based
Settings: 10 μM
Excerpt: CD34+ cells were isolated from fresh human blood from healthy donors, obtained from the Health Services unit of the Healthcare Business of Merck KGaA, Darmstadt, Germany. First, peripheral blood mononuclear cells (PBMC) were isolated via density centrifugation, and then the target cells were isolated via magnetic bead labeling using the EasySep Human CD34 Positive Selection Kit II (Stemcell Technologies #17856). After isolation, the CD34+ cells were cultivated in cultivation medium (StemSpan SFEM II (Stemcell Technologies #09655) + 10% (1×) StemSpan CD34+ Expansion (Stemcell Technologies #02691)) for 10 to 12 days. At that point, the media was exchanged for fresh […] medium (Gibco #31870), supplemented with 10% FCS, 2 mM L-glutamine, 100 U/ml penicillin/streptomycin, 1 mM sodium-pyruvate, 1 mM non-essential amino acids, 50 μM ß-mercaptoethanol, and 100 ng/ml human G-CSF (PeproTech, AF-300-23), and the cells were incubated for 10 days in order to derive human PMN-MDSC.
Monocytes were isolated from fresh human blood from healthy donors, obtained from Health Services unit of the Healthcare Business of Merck KGaA, Darmstadt, Germany. […]
PMN-MDSC and DC were differentiated as described above. […] At that point, the supernatant was transferred and IFNγ was measured using a human INFγ HTRF kit (Cisbio #62[…]) following standard assay protocol provided by the manufacturer. The data was analyzed using Genedata software (GeneData Inc, https://www.genedata.com/) with 0% defined by the DMSO-treated wells and 100% effect defined by the wells without PMN-MDSC. […]
After confirming the physiological and pharmacological suitability of the NUP-MDSC model, we developed a high-throughput screen for the identification of potential MDSC modulators (Fig. 4A and supplemental Fig. S3). […] After 72 h, T cell activity was assessed by recording T cell proliferation and IFN-γ secretion. […] Compounds were declared hits if reversing the suppression effect of NUP-MDSC on T cells with ≥50% in either readout resulting in 392 hit compounds (Fig. 4B). […]

CCOC(=O)c1nnn(-c2nn3nnnc3c3ccccc23)c1C [compound 2]
% effect on IFNγ secretion (mild effect in 4 of 23 donor combinations): < 40%
activity on IFNγ secretion (some donors of 23 donor combinations): no activity
% effect on IFNγ secretion (strong effect in 5 of 23 donor combinations): > 40%
